Here are results for 4 compounds from patent US9701662B2, “Herbicidal compounds” (Syngenta Participations AG, priority 2014, dated 2017).

Format in all cases: in vivo
In experiment [1] the test system is Amaranthus retoflexus (AMARE). Kind of experiment: Post-emergence glasshouse herbicide test. The note with it: post-emergence (sprayed after 8 days cultivation), 1000 g/h, evaluated after 13 days, five point scale. Here is the method:
(§1) Seeds of a variety of test species are sown in standard soil in pots (Lolium perenne (LOLPE), Solanum nigrum (SOLNI), Amaranthus retoflexus (AMARE), Setaria faberi (SETFA), Echinochloa crus-galli (ECHCG), Ipomoea hederacea (IPOHE)). After cultivation for one day (pre-emergence) or after 8 days cultivation (post-emergence) under controlled conditions in a glasshouse (at 24/16° C., day/night; 14 hours light; 65% humidity), the plants are sprayed with an aqueous spray solution derived from the formulation of the technical active ingredient in acetone/water (50:50) solution containing 0.5% Tween 20 (polyoxyethelyene sorbitan monolaurate, CAS RN 9005-64-5). Compounds are applied at 1000 g/h. The test plants are then grown in a glasshouse under controlled conditions in a glasshouse (at 24/16° C., day/night; 14 hours light; 65% humidity) and watered twice daily. After 13 days for pre and post-emergence, the test is evaluated for the percentage damage caused to the plant. The biological activities are shown in the following table on a five point scale (5=80-100%; 4=60-79%; 3=40-59%; 2=20-39%; 1=0-19%).

Experiment [2] deals with Echinochloa crus-galli (ECHCG). Put plainly: Post-emergence glasshouse herbicide test. The note with it: post-emergence (sprayed after 8 days cultivation), 1000 g/h, evaluated after 13 days, five point scale. On the procedure: as §1
Experiment [3] has as its system Ipomoea hederacea (IPOHE). Kind of experiment: Post-emergence glasshouse herbicide test. Conditions: post-emergence (sprayed after 8 days cultivation), 1000 g/h, evaluated after 13 days, five point scale. On the procedure:
as §1

The test system of experiment [4] is Lolium perenne (LOLPE). Put plainly: Post-emergence glasshouse herbicide test. Conditions: post-emergence (sprayed after 8 days cultivation), 1000 g/h, evaluated after 13 days, five point scale. Here is the method: as §1
The subject of experiment [5] is Setaria faberi (SETFA). Put plainly: Post-emergence glasshouse herbicide test. Conditions: post-emergence (sprayed after 8 days cultivation), 1000 g/h, evaluated after 13 days, five point scale. Here is the method: as §1
In experiment [6] the test system is Solanum nigrum (SOLNI). Kind of experiment: Post-emergence glasshouse herbicide test. The note with it: post-emergence (sprayed after 8 days cultivation), 1000 g/h, evaluated after 13 days, five point scale. On the procedure:
as §1

Experiment [7] deals with Amaranthus retoflexus (AMARE). Kind of experiment: Pre-emergence glasshouse herbicide test. Conditions: pre-emergence (sprayed after one day cultivation), 1000 g/h, evaluated after 13 days, five point scale. On the procedure:
as §1

In experiment [8] the test system is Echinochloa crus-galli (ECHCG). Put plainly: Pre-emergence glasshouse herbicide test. The note with it: pre-emergence (sprayed after one day cultivation), 1000 g/h, evaluated after 13 days, five point scale. On the procedure:
as §1

Experiment [9] concerns Ipomoea hederacea (IPOHE). Kind of experiment: Pre-emergence glasshouse herbicide test. The note with it: pre-emergence (sprayed after one day cultivation), 1000 g/h, evaluated after 13 days, five point scale. Here is the method: as §1
Experiment [10] concerns Lolium perenne (LOLPE). Put plainly: Pre-emergence glasshouse herbicide test. The note with it: pre-emergence (sprayed after one day cultivation), 1000 g/h, evaluated after 13 days, five point scale. Here is the method: as §1
Experiment [11] relates to Setaria faberi (SETFA). Put plainly: Pre-emergence glasshouse herbicide test. The note with it: pre-emergence (sprayed after one day cultivation), 1000 g/h, evaluated after 13 days, five point scale. On the procedure: as §1
Experiment [12] concerns Solanum nigrum (SOLNI). Put plainly: Pre-emergence glasshouse herbicide test. Conditions: pre-emergence (sprayed after one day cultivation), 1000 g/h, evaluated after 13 days, five point scale. On the procedure:
as §1

For `Cc1c(Cl)c(C(=O)Nc2nnnn2C)nn(C)c1=O` [Compound 1.007], the “percentage damage caused to the plant, AMARE, POST Application” value in [1] is listed as 5 (5=80-100%). In addition, in experiment [2], the “percentage damage caused to the plant, ECHCG, POST Application” value is listed as 5 (5=80-100%). In addition, the “percentage damage caused to the plant, IPOHE, POST Application” value in [3] is 5 (5=80-100%). Also, the “percentage damage caused to the plant, LOLPE, POST Application” value in the experiment on Lolium perenne (LOLPE) [4] is given as 5 (5=80-100%). In addition, the “percentage damage caused to the plant, SETFA, POST Application” value in the experiment with Setaria faberi (SETFA) [5] is reported as 5 (5=80-100%). Besides, the “percentage damage caused to the plant, SOLNI, POST Application” value with Solanum nigrum (SOLNI) [6] was 5 (5=80-100%). Besides, the “percentage damage caused to the plant, AMARE, PRE Application” value in [7] is 5 (5=80-100%). Moreover, the “percentage damage caused to the plant, ECHCG, PRE Application” value in experiment [8] was 5 (5=80-100%). Besides, the “percentage damage caused to the plant, IPOHE, PRE Application” value in [9] was 5 (5=80-100%). In the experiment with Lolium perenne (LOLPE) [10], the “percentage damage caused to the plant, LOLPE, PRE Application” value was 5 (5=80-100%). The “percentage damage caused to the plant, SETFA, PRE Application” value with Setaria faberi (SETFA) [11] is recorded as 5 (5=80-100%). Further, the “percentage damage caused to the plant, SOLNI, PRE Application” value in the experiment on Solanum nigrum (SOLNI) [12] was 5 (5=80-100%).
In the case of `CCCCNc1c(C(=O)Nc2nnnn2C)nn(C)c(=O)c1C` [Compound 1.008], in experiment [1], the “percentage damage caused to the plant, AMARE, POST Application” value is recorded as 5 (5=80-100%). Further, the “percentage damage caused to the plant, ECHCG, POST Application” value in experiment [2] is reported as 1 (1=0-19%). In experiment [3], the “percentage damage caused to the plant, IPOHE, POST Application” value is 2 (2=20-39%). In the experiment with Lolium perenne (LOLPE) [4], the “percentage damage caused to the plant, LOLPE, POST Application” value is 1 (1=0-19%). Further, the “percentage damage caused to the plant, SETFA, POST Application” value in the experiment on Setaria faberi (SETFA) [5] is listed as 1 (1=0-19%). Further, the “percentage damage caused to the plant, SOLNI, POST Application” value with Solanum nigrum (SOLNI) [6] was 5 (5=80-100%). The “percentage damage caused to the plant, AMARE, PRE Application” value in experiment [7] is 4 (4=60-79%). The “percentage damage caused to the plant, ECHCG, PRE Application” value in experiment [8] is 1 (1=0-19%). Further, in [9], the “percentage damage caused to the plant, IPOHE, PRE Application” value is 2 (2=20-39%). Besides, the “percentage damage caused to the plant, LOLPE, PRE Application” value in the experiment with Lolium perenne (LOLPE) [10] is 1 (1=0-19%). For the same compound, the “percentage damage caused to the plant, SETFA, PRE Application” value with Setaria faberi (SETFA) [11] is reported as 1 (1=0-19%). Further, the “percentage damage caused to the plant, SOLNI, PRE Application” value in the experiment on Solanum nigrum (SOLNI) [12] is recorded as 2 (2=20-39%).
With `CCOc1c(C(=O)Nc2nnnn2C)nn(C)c(=O)c1C` [Compound 1.009], the “percentage damage caused to the plant, AMARE, POST Application” value in experiment [1] is on record as 5 (5=80-100%). In addition, the “percentage damage caused to the plant, ECHCG, POST Application” value in experiment [2] is 5 (5=80-100%). The “percentage damage caused to the plant, IPOHE, POST Application” value in experiment [3] is reported as 5 (5=80-100%). In addition, in the experiment with Lolium perenne (LOLPE) [4], the “percentage damage caused to the plant, LOLPE, POST Application” value is 4 (4=60-79%). Also, the “percentage damage caused to the plant, SETFA, POST Application” value with Setaria faberi (SETFA) [5] is given as 5 (5=80-100%). Also, the “percentage damage caused to the plant, SOLNI, POST Application” value with Solanum nigrum (SOLNI) [6] is listed as 5 (5=80-100%). The “percentage damage caused to the plant, AMARE, PRE Application” value in experiment [7] is given as 5 (5=80-100%). Also, the “percentage damage caused to the plant, ECHCG, PRE Application” value in experiment [8] is reported as 4 (4=60-79%). Further, in experiment [9], the “percentage damage caused to the plant, IPOHE, PRE Application” value is given as 5 (5=80-100%). For the same compound, the “percentage damage caused to the plant, LOLPE, PRE Application” value with Lolium perenne (LOLPE) [10] is given as 3 (3=40-59%). Also, the “percentage damage caused to the plant, SETFA, PRE Application” value with Setaria faberi (SETFA) [11] is reported as 3 (3=40-59%). Moreover, in the experiment with Solanum nigrum (SOLNI) [12], the “percentage damage caused to the plant, SOLNI, PRE Application” value is 5 (5=80-100%).
In the case of `Cn1nnnc1NC(=O)c1nn(C)c(=O)c(-c2ccccc2)c1Cl` [Compound 1.010], the “percentage damage caused to the plant, AMARE, POST Application” value in experiment [1] is on record as 5 (5=80-100%). The “percentage damage caused to the plant, ECHCG, POST Application” value in experiment [2] was 5 (5=80-100%). For the same compound, the “percentage damage caused to the plant, IPOHE, POST Application” value in experiment [3] is reported as 4 (4=60-79%). Also, in the experiment with Lolium perenne (LOLPE) [4], the “percentage damage caused to the plant, LOLPE, POST Application” value is listed as 4 (4=60-79%). In addition, the “percentage damage caused to the plant, SETFA, POST Application” value in the experiment on Setaria faberi (SETFA) [5] is 5 (5=80-100%). The “percentage damage caused to the plant, SOLNI, POST Application” value in the experiment with Solanum nigrum (SOLNI) [6] is reported as 5 (5=80-100%). The “percentage damage caused to the plant, AMARE, PRE Application” value in experiment [7] is reported as 5 (5=80-100%). Also, the “percentage damage caused to the plant, ECHCG, PRE Application” value in experiment [8] is recorded as 5 (5=80-100%). In addition, the “percentage damage caused to the plant, IPOHE, PRE Application” value in [9] is 1 (1=0-19%). For the same compound, the “percentage damage caused to the plant, LOLPE, PRE Application” value in the experiment on Lolium perenne (LOLPE) [10] is 5 (5=80-100%). Further, in the experiment on Setaria faberi (SETFA) [11], the “percentage damage caused to the plant, SETFA, PRE Application” value is recorded as 5 (5=80-100%). In the experiment with Solanum nigrum (SOLNI) [12], the “percentage damage caused to the plant, SOLNI, PRE Application” value is 5 (5=80-100%).
